Like-named read-outs stand apart in the source and are kept apart here.
Columns and labels:
[1] = target: α4 with wild-type β2 nAChR, (α4)2(β2)3 (Homo sapiens, UniProt P17787+P43681); assay: Two-electrode voltage clamp of receptors expressed in Xenopus oocytes; type: cell-based
[2] = target: α4 with β2F119Q nAChR (Homo sapiens, UniProt P17787+P43681, F144Q); assay: as above; type: cell-based
[3] = target: α4 with β2S113R nAChR (Homo sapiens, UniProt P17787+P43681, S138R); assay: as above; type: cell-based
[4] = test system: α4β2 and α4β4 nAChRs; conditions: range over both agonists and both receptors; cited from earlier work
[5] = target: human α4β2 nAChRs (Homo sapiens, UniProt P17787+P43681); assay: Photoaffinity labeling; type: binding; conditions: ∼1 nM probe, 254 nm, α4 or β2 subunit
[6] = target: rat α4β4 nAChRs (Rattus norvegicus, UniProt P09483+P12392); type: binding
[7] = target: α4β4 receptor; conditions: read-out: IC50 inhibiting binding of [3H]epibatidine; cited from earlier work
[8] = target: nicotinic (α4)2(β2)3 receptors; conditions: cited from earlier work
[9] = target: α4β2F119Q, α4β2S113R and wild-type (WT) hα4β2 receptors; design: species or system human; conditions: read-out: [3H]epibatidine binding affinities; range over α4β2F119Q, α4β2S113R and WT hα4β2 transiently expressed in HEK 293 cells
[10] = target: α4β2F119Q receptors (Homo sapiens, UniProt P17787+P43681, F144Q); type: binding; conditions: preincubation with 100 nM epibatidine
[11] = read-out: EC50 of activation, 5 oocytes

Chain of rat α4β4 nAChRs (P09483 31-630): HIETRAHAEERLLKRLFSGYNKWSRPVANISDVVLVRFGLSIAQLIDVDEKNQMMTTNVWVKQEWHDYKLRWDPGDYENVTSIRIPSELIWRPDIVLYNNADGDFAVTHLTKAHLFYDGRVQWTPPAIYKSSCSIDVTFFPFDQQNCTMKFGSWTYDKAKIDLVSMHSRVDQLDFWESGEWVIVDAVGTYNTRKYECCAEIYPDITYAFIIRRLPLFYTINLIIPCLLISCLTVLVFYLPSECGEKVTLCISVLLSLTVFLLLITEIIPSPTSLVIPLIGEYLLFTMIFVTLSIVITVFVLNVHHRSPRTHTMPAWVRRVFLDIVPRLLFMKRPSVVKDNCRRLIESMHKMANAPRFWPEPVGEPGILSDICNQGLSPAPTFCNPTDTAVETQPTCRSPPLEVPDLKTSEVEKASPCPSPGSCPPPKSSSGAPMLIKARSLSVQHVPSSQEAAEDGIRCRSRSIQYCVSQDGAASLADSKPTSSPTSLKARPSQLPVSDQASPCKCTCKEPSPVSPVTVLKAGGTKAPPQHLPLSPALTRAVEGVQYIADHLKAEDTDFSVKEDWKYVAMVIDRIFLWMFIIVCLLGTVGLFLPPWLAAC
Chain of rat α4β4 nAChRs (P12392 25-495): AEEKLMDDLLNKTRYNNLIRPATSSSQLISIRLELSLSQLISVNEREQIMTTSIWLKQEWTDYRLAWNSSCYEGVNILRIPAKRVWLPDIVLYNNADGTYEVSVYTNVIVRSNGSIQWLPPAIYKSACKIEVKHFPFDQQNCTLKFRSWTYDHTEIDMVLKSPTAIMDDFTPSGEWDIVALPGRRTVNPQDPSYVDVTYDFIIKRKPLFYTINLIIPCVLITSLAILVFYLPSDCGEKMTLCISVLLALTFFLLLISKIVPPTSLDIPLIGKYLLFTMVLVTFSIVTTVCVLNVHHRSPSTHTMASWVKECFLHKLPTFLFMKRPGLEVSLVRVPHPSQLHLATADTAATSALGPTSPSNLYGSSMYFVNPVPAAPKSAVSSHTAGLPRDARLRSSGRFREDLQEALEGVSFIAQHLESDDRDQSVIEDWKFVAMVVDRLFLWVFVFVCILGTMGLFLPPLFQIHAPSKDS
Chain of human α4β2 nAChRs (P17787 26-502): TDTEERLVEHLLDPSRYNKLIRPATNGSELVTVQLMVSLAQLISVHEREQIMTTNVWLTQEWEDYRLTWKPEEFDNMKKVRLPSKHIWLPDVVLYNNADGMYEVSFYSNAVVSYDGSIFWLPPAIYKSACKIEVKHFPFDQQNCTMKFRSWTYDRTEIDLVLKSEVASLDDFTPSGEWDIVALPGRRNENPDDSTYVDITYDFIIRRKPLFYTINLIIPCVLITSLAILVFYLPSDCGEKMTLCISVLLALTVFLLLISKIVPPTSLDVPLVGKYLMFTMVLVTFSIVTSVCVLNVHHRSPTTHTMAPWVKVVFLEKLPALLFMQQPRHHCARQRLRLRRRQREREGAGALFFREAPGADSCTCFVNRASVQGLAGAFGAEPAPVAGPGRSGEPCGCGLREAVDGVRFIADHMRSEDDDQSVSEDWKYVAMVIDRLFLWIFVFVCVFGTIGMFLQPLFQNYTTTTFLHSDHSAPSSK
Chain of human α4β2 nAChRs (P43681 29-627): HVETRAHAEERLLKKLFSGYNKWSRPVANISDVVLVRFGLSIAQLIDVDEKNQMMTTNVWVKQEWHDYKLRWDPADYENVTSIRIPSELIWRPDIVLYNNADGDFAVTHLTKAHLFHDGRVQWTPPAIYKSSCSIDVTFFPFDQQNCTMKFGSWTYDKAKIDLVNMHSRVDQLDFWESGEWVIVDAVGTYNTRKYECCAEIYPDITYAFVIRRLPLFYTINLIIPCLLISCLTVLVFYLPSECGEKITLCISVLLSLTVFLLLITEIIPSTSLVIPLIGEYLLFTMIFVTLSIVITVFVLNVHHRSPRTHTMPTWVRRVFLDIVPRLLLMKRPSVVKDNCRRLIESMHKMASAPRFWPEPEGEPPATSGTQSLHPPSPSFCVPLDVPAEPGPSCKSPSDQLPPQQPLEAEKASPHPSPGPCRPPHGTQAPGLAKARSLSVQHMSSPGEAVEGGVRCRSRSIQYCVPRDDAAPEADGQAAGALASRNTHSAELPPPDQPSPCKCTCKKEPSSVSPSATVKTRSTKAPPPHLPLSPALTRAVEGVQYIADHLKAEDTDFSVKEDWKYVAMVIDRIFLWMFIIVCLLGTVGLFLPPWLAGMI
Chain of α4 with β2F119Q nAChR (P43681 29-627, stated change not applied): as the sequence (P43681 29-627) above
Chain of α4 with β2F119Q nAChR (P17787 26-502 F144Q): as the sequence (P17787 26-502) above, with F119Q counted along it
Chain of α4 with β2S113R nAChR (P43681 29-627 limits assumed): as the sequence (P43681 29-627) above
Chain of α4 with β2S113R nAChR (P17787 26-502 S138R): as the sequence (P17787 26-502) above, with S113R counted along it
Chain of α4 with wild-type β2 nAChR, (α4)2(β2)3 (P43681 29-627 limits assumed): as the sequence (P43681 29-627) above
Chain of α4 with wild-type β2 nAChR, (α4)2(β2)3 (P17787 26-502): as the sequence (P17787 26-502) above
Chain of α4β2F119Q receptors (P43681 29-627, stated change not applied): as the sequence (P43681 29-627) above
Chain of α4β2F119Q receptors (P17787 26-502 F144Q): as the sequence (P17787 26-502) above, with F119Q counted along it

Question: For `CC(=O)OCC[N+](C)(C)C` [ACh, Acetylcholine chloride], which “actual amplitude of the ACh response” value ([1]; 1 mM ACh, single oocyte trace) is on record?
Answer: Its value is -0.8 μA.

Question: And the “actual amplitude of the ACh response” value ([2]; 1 mM ACh, single oocyte trace)?
Answer: The value was -0.03 μA.

Question: What about the “actual amplitude of the ACh response” value ([3]; 1 mM ACh, single oocyte trace) of the same compound?
Answer: Its value is -3.3 μA.

Question: Which binding affinity [4] does the source give for `Ic1ccc(C2CC3CCC2N3)cn1` (stereo not shown) [iodoepibatidine] here?
Answer: The binding affinity was 0.062 to 24 nM.

Question: With `[125I]c1cncc(OCC2CCN2)c1` (stereo not shown) [5[^125I]A-85380] as the compound, how does the pattern of photoincorporation [5] read?
Answer: The pattern of photoincorporation was “very little if any photoincorporation”.

Question: And the pattern of photoincorporation ([6]; 1 nM probe, 254 nm, 30 or 15 min)?
Answer: The pattern of photoincorporation was “incorporated selectively into the β4 subunit”.

Question: With `Cl.Cl.Ic1cncc(OC[C@@H]2CCN2)c1` [5I-A-85380, 5-iodo-A-85380 dihydrochloride] as the compound, how does the binding affinity [4] read?
Answer: Its binding affinity is 0.062 to 24 nM.

Question: And the EC50 [1, 11]?
Answer: Its EC50 is 0.023 ± 0.002 µM.

Question: And the EC50 [2, 11]?
Answer: The EC50 was 0.338 ± 0.077 µM.

Question: And the EC50 ([3]; read-out: EC50 of activation, 7 oocytes)?
Answer: The EC50 was 0.03 ± 0.007 µM.

Question: What about the IC50 [7] of the same compound?
Answer: Its IC50 is 0.024 µM.

Question: What about the EC50 [8] of the same compound?
Answer: The EC50 was roughly 0.01 µM.

Question: And the maximal response ([8]; compared with ACh)?
Answer: The maximal response was “larger than that for ACh itself”.

Question: Which Kd [9] does the source give for `Clc1ccc(C2CC3CCC2N3)cn1` (stereo not shown) [[^3H]epibatidine] here?
Answer: The Kd was 0.0004 to 0.0007 µM.

Question: Which “effect on [125I]epibatidine labeling in the β2F119Q subunit” value [10] does the source give for `Clc1ccc(C2CC3CCC2N3)cn1` (stereo not shown) [epibatidine] here?
Answer: The value was “completely eliminated labeling”.

Question: What about the “effect on labeling by radiolabeled agonist” value [6] of the same compound?
Answer: The value was “complete elimination of labeling”.

Question: Which results are given for `CN1CCC[C@H]1c1cccnc1` [nicotine]?
Answer: effect on labeling by radiolabeled agonist ([6]; 15 min preincubation with 100 μM nicotine or 100 nM epibatidine): complete elimination of labeling; reduction of [125I]epibatidine labeling of β4 subunit and β4′ fragment ([6]; co-application of 100 μM nicotine, γ-counting of excised gel bands): > 50%

Question: With [^125I]epibatidine as the compound, how does the pattern of photoincorporation [5] read?
Answer: Its pattern of photoincorporation is “very little if any photoincorporation”.
